In ChEMBL document CHEMBL6087469, “Targeting Oncogenic RET Kinase by Simultaneously Inhibiting Kinase Activity and Degrading the Protein” (J Med Chem, 2025):
Calls of active or inactive are those of the source. The calls are words filed in the database; no cut-off is given here.

Experiments:
[1] = AUC (0 to infinity) in mouse at 50 mg/kg, ip measured for 48 hrs by LC/MS/MS analysis; type: ADME, organism-based; details: in vivo
[2] = Half life in mouse at 50 mg/kg, ip measured for 48 hrs by LC/MS/MS analysis; type: ADME, organism-based; details: in vivo
[3] = Tmax in mouse at 50 mg/kg, ip measured for 48 hrs by LC/MS/MS analysis; type: ADME, organism-based; details: in vivo
TPC1 [4] = assay: Inhibition of cell proliferation in human TPC1 cells measured after 5 days by Cell Titer Glo assay; type: functional, cell-based; details: time 5.0 day
[5] = Cmax in mouse at 50 mg/kg, ip measured for 48 hrs by LC/MS/MS analysis; type: ADME, organism-based; details: in vivo
[6] = target: Coiled-coil domain-containing protein 6/Tyrosine-protein kinase receptor RET (Homo sapiens) (UniProt P07949+Q16204); assay: Inhibition of CCDC6-RET fusion kinase activity in human TPC1 cells upto 250 nM incubated for 24 hrs by immunoblotting analysis; type: cell-based
TPC1 [7] = assay: Induction of CCDC6-RET fusion degradation in human TPC1 cells upto 250 nM incubated for 24 hrs by immunoblotting analysis; type: cell-based
TPC1 [8] = assay: Downregulation of CDKN1B expression in human TPC1 cells at 200 nM incubated for 24 hrs by TMT mass spectrometric proteomic analysis; type: functional, cell-based
TPC1 [9] = assay: Downregulation of AURKA expression in human TPC1 cells at 200 nM incubated for 24 hrs by TMT mass spectrometric proteomic analysis; type: functional, cell-based
TPC1 [10] = assay: Downregulation of MKI67 expression in human TPC1 cells at 200 nM incubated for 24 hrs by TMT mass spectrometric proteomic analysis; type: functional, cell-based
TPC1 [11] = assay: Downregulation of AURKB expression in human TPC1 cells at 200 nM incubated for 24 hrs by TMT mass spectrometric proteomic analysis; type: functional, cell-based
TPC1 [12] = assay: Downregulation of CDK2 expression in human TPC1 cells at 200 nM incubated for 24 hrs by TMT mass spectrometric proteomic analysis; type: functional, cell-based

Coiled-coil domain-containing protein 6/Tyrosine-protein kinase receptor RET (Homo sapiens), sequence (P07949 29-1114 limits assumed): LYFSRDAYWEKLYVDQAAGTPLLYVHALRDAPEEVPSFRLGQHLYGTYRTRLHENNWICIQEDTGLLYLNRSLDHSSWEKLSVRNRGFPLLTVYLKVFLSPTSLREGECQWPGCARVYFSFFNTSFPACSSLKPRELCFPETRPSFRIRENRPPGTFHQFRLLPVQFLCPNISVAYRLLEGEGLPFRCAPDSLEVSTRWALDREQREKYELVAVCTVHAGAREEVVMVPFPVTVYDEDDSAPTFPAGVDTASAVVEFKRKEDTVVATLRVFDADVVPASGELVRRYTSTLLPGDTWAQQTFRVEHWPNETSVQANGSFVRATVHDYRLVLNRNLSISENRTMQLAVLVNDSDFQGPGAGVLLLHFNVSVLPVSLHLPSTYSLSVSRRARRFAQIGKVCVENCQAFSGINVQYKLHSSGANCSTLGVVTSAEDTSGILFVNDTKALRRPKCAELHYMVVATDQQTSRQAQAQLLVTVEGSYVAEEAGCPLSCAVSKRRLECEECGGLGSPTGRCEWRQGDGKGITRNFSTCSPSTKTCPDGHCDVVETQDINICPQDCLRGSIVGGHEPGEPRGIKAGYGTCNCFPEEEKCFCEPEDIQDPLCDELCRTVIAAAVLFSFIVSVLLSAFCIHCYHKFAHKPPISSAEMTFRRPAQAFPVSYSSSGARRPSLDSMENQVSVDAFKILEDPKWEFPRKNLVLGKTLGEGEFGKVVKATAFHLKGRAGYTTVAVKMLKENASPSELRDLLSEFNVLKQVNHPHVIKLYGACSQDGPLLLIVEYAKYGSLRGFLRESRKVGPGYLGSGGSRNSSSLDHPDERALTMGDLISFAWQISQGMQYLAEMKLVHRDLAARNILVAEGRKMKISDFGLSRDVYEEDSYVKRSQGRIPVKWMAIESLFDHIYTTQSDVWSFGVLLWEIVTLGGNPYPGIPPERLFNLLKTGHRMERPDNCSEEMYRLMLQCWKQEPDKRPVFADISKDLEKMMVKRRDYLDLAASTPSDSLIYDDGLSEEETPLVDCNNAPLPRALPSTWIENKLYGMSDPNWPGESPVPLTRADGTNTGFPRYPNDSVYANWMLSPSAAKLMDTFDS
Coiled-coil domain-containing protein 6/Tyrosine-protein kinase receptor RET (Homo sapiens), sequence (Q16204 2-474 partner limits assumed): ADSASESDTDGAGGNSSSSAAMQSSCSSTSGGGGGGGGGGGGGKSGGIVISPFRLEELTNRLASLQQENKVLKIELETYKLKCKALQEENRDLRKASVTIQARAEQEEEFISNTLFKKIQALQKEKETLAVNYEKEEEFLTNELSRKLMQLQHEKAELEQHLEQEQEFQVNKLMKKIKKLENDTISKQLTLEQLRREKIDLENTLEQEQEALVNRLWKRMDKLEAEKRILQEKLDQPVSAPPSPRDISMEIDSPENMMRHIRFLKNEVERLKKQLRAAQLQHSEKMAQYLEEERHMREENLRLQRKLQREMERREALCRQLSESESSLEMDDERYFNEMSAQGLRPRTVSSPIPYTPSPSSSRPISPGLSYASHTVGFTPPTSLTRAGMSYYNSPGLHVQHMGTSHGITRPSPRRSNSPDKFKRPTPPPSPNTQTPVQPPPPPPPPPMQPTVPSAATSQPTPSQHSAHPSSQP

`COc1ccc(CN2C3CC2CN(c2ccc(-c4cc(OCCCC(=O)N5CCC(N6CCC(C#Cc7ccc(C(=O)NCC#Cc8ccc9c(c8)CN(C8CCC(=O)NC8=O)C9=O)cc7)CC6)CC5)cn5ncc(C#N)c45)cn2)C3)cn1` (stereo not drawn) showed an AUC(0-inf) [1] of 3670 ng·h/mL, a half-life [2] of 7.3 h and a Tmax ([3]; read-out: Tmax) of 1 h. The inhibition (TPC1 [4]) was “Active” and the Cmax ([5]; read-out: Cmax) was 1140 ng/mL.
For `COc1ccc(CN2C3CC2CN(c2ccc(-c4cc(OCCCCCCCC(=O)N5CCN(c6ccc(C(=O)NCCOc7ccc(C8CCC(=O)N(C)C8=O)cc7)cn6)CC5)cn5ncc(C#N)c45)cn2)C3)cn1` (stereo not drawn), the inhibition [6] was “Active”, the Activity (TPC1 [7]) was “inactive” and the inhibition (TPC1 [4]) was “Active”.
With `COc1ccc(CN2C3CC2CN(c2ccc(-c4cc(OCC(C)(C)O)cn5ncc(C#N)c45)cn2)C3)cn1` the Activity (TPC1 [8]) was “Active”, the Activity (TPC1 [9]) was “Active” and the Activity (TPC1 [10]) was “Active”. The Activity (TPC1 [11]) was “Active” and the Activity (TPC1 [12]) was “Active”.
With `COc1ccc(CN2C3CC2CN(c2ccc(-c4cc(OCCCC(=O)NC5CC6(CCN(c7ccc(C(=O)NCCOc8ccc(C9CCC(=O)NC9=O)cc8)cc7)CC6)C5)cn5ncc(C#N)c45)cn2)C3)cn1` (stereo not drawn) the AUC ([1]; ip, 50 mg/kg, 48 h) was 2342.1 ng·h/mL, the t1/2 ([2]; ip, 50 mg/kg, 48 h) was 0.25 h and the Tmax ([3]; ip, 50 mg/kg, 48 h) was 0.17 h. The inhibition (TPC1 [4]) was “Active” and the Cmax ([5]; ip, 50 mg/kg, 48 h) was 44.9 ng/mL.
